# Laboratory results from patent US20190262330A1, “Method of Treating Hepatocellular Carcinoma Using N-(4-(6,7-dimethoxyquinolin-4-yloxy)phenyl)-N′-(4-fluorophenyl)cyclopropane-1,1-dicarboxamide, (2S)-hydroxybutanedioate” (Exelixis, Inc., priority 2017, published 2019).
# Target: TRKB (Homo sapiens, UniProt Q16620)
# Test: In vitro biochemical and/or cellular kinase assays
# Sequence of TRKB (Q16620 32-822): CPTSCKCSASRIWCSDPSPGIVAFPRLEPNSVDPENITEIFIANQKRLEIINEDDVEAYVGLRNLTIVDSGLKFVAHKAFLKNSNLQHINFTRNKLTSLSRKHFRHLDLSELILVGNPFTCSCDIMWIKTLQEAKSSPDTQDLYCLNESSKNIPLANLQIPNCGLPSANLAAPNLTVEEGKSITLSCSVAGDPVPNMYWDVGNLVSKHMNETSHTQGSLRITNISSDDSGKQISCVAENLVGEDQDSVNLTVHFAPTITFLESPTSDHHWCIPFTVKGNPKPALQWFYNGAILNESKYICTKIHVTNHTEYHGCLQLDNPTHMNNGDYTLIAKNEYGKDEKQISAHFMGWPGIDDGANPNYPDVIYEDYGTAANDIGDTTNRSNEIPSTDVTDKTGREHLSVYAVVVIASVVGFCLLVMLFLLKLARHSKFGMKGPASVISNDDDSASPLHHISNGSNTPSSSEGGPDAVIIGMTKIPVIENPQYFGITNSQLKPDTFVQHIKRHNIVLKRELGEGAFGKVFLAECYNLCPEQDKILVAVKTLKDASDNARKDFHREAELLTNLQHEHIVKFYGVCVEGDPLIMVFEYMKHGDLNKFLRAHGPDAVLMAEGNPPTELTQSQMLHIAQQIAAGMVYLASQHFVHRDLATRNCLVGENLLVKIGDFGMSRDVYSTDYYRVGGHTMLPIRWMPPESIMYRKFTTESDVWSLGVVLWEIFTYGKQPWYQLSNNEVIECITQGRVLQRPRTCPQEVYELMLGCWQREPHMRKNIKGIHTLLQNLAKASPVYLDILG
smiles,measurement,value
COc1cc2nccc(Oc3ccc(NC(=O)C4(C(=O)Nc5ccc(F)cc5)CC4)cc3)c2cc1OC [cabozantinib],Tyrosine kinase activity of TRKB,inhibits
